# Measured values: ChEMBL document CHEMBL1201862, “PubChem BioAssay data set” (2004)
# Values joined by “and” are separate entries in the source; they are usually repeats but may differ in a detail not shown here. Identical values can stand only once.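 Each compound was tested at five concentrations against cells in 96-well plates for 48 hours. GI50 is the concentration that inhibits growth by half.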 Active and inactive are the calls of the source. Rule as the data show it: active = GI50 up to about 1.1 µM and inactive = higher. Starred links: 1 amine or outer side, 2 acyl side, 3 side chain; linkers in the order of their positions; H or OH if unused. Positions of bridges follow the written chain, without caps; N, C: chain ends. Non-standard residues stand in square brackets, D forms with d. Residues, ends and D or L forms follow the SMILES beside them. Chains are numbered I, II in the order given. Actinocin(1to9) = Cc1c2oc3c(C)ccc(C(=O)[*:2])c3nc-2c(C(=O)[*:1])c(N)c1=O; aThr = C[C@H](O)[C@H](N)C(=O)O; NMeV = CN[C@H](C(=O)O)C(C)C; Sar = CNCC(=O)O
# Tests used:
# Assay in all cases: DTP human tumour cell line panel, 48 h
# [1] = test system: K562
# [2] = test system: HOP-18
# [3] = test system: 786-0
# [4] = test system: SNB-78
# [5] = test system: A498
# [6] = test system: UO-31
# [7] = test system: UACC-62
# [8] = test system: SNB-75
# [9] = test system: SK-MEL-5
# [10] = test system: HCT-15
# [11] = test system: HL-60
# [12] = test system: HCT-116
# [13] = test system: OVCAR-8
# [14] = test system: LOX IMVI
# [15] = test system: OVCAR-4
# [16] = test system: SK-OV-3
# [17] = test system: DMS-273
# [18] = test system: A549
# [19] = test system: SK-MEL-28
# [20] = test system: T47D
# [21] = test system: MDA-N
# [22] = test system: OVCAR-5
# [23] = test system: SK-MEL-2
# [24] = test system: M14
# [25] = test system: M19-MEL
# [26] = test system: SN12C
# [27] = test system: U-251
# [28] = test system: HOP-62
# [29] = test system: Malme-3M
# [30] = test system: SW-620
# [31] = test system: RPMI-8226
# [32] = test system: MCF7
# [33] = test system: SF-268
# [34] = test system: MOLT-4
# [35] = test system: UACC-257
# [36] = test system: EKVX
# [37] = test system: SF-295
# [38] = test system: OVCAR-3
# [39] = test system: HT-29
# [40] = test system: DMS-114
# [41] = test system: SR
# [42] = test system: CCRF-CEM
# [43] = test system: MDA-MB-435
# [44] = test system: HCC 2998
# [45] = test system: PC-3
# [46] = test system: TK-10
# [47] = test system: Hs-578T
# [48] = test system: KM-20L2
# [49] = test system: DU-145
# [50] = test system: NCI/ADR-RES
# [51] = test system: IGROV-1
# [52] = test system: NCI-H23
# [53] = test system: NCI-H460
# [54] = test system: CAKI-1
# [55] = test system: KM12
# [56] = test system: SF-539
# [57] = test system: RXF 393
# [58] = test system: COLO 205
# [59] = test system: NCI-H226
# [60] = test system: XF498
# [61] = test system: BT-549
# [62] = test system: NCI-H522
# [63] = test system: MDA-MB-231
# [64] = test system: ACHN
# [65] = test system: SNB-19
# [66] = test system: HOP-92
# [67] = test system: DLD-1
# [68] = test system: LXFL 529
compound,measurement,setting,value
"Cc1c2oc3c(C)ccc(C(=O)N[C@@H]4C(=O)N[C@H](C(C)C)C(=O)N5CCC[C@H]5C(=O)N(C)CC(=O)N(C)[C@@H](C(C)C)C(=O)O[C@H]4C)c3nc-2c(C(=O)N[C@@H]2C(=O)N[C@H](C(C)C)C(=O)N3CCC[C@H]3C(=O)N(C)CC(=O)N(C)[C@@H](C(C)C)C(=O)O[C@H]2C)c(N)c1=O (I: [aThr][dV]P[Sar][NMeV] / II: [aThr][dV]P[Sar][NMeV]; ester I:1-I:C, II:1-II:C; linker I:N-II:N via Actinocin(1to9))",GI50,[1],0.492 nM (active)
same,GI50,[2],6.11 nM (active)
same,GI50,[3],0.951 nM (active)
same,GI50,[4],2.7 nM (active)
same,GI50,[5],2.99 nM (active)
same,GI50,[6],15 nM (active)
same,GI50,[7],0.935 nM (active)
same,GI50,[8],2.3 nM (active)
same,GI50,[9],1.15 nM (active)
same,GI50,[10],20 nM
same,GI50,[11],2.31 nM (active)
same,GI50,[12],0.332 nM (active)
same,GI50,[13],1.65 nM (active)
same,GI50,[14],0.518 nM (active)
same,GI50,[15],5.83 nM (active)
same,GI50,[16],8.69 nM (active)
same,GI50,[17],0.31 nM (active)
same,GI50,[18],2.06 nM (active)
same,GI50,[19],1.39 nM (active)
same,GI50,[20],0.628 nM (active)
same,GI50,[21],0.631 nM (active)
same,GI50,[22],6.11 nM (active)
same,GI50,[23],1.06 nM (active)
same,GI50,[24],5.28 nM (active)
same,GI50,[25],1.55 nM (active)
same,GI50,[26],1.85 nM (active)
same,GI50,[27],0.611 nM (active)
same,GI50,[28],2.17 nM (active)
same,GI50,[29],1.19 nM (active)
same,GI50,[30],0.489 nM (active)
same,GI50,[31],0.61 nM (active)
same,GI50,[32],0.189 nM (active)
same,GI50,[33],1.48 nM (active)
same,GI50,[34],0.48 nM (active)
same,GI50,[35],2.55 nM (active)
same,GI50,[36],12 nM (active)
same,GI50,[37],2.03 nM (active)
same,GI50,[38],3.61 nM (active)
same,GI50,[39],0.759 nM (active)
same,GI50,[40],2.95 nM (active)
same,GI50,[41],0.31 nM (active)
same,GI50,[42],0.863 nM (active)
same,GI50,[43],0.871 nM (active)
same,GI50,[44],2.75 nM (active)
same,GI50,[45],1.34 nM (active)
same,GI50,[46],14.9 nM (active)
same,GI50,[47],1.87 nM (active)
same,GI50,[48],2.92 nM (active)
same,GI50,[49],3.93 nM (active)
same,GI50,[50],98 nM (active)
same,GI50,[51],2.17 nM (active)
same,GI50,[52],2.19 nM (active)
same,GI50,[53],0.424 nM (active)
same,GI50,[54],4.84 nM (active)
same,GI50,[55],1.28 nM (active)
same,GI50,[56],0.899 nM (active)
same,GI50,[57],2.58 nM (active)
same,GI50,[58],1.06 nM (active)
same,GI50,[59],1.95 nM (active)
same,GI50,[60],0.897 nM (active)
same,GI50,[61],1.69 nM (active)
same,GI50,[62],0.506 nM (active)
same,GI50,[63],4.55 nM (active)
same,GI50,[64],3.71 nM (active)
same,GI50,[65],1.61 nM (active)
same,GI50,[66],3.14 nM (active)
same,GI50,[67],3.84 nM (active)
COC(C(=O)C(O)C(C)O)C1Cc2cc3cc(OC4CC(OC(C)=O)C(OC5CC(O)C(OC)C(C)O5)C(C)O4)cc(O)c3c(O)c2C(=O)C1OC1CC(OC2CC(OC3CC(C)(O)C(OC(=O)C(C)C)C(C)O3)C(O)C(C)O2)C(O)C(C)O1 (stereo unspecified),GI50,[2],< 10 nM (active)
same,GI50,[4],29.1 nM (active) and 24.1 nM (active)
same,GI50,[5],14.5 nM (active) and 8.43 nM (active)
same,GI50,[6],938 nM (active) and 1.19 µM (inactive)
same,GI50,[7],< 10 nM (active) and 16.2 nM (active)
same,GI50,[8],< 10 nM (active) and 19.1 nM (active)
same,GI50,[9],20.1 nM (active) and < 17.8 nM (active)
same,GI50,[10],800 nM and 935 nM
same,GI50,[12],< 18.4 nM (active) and < 10 nM (active)
same,GI50,[16],210 nM (active) and 166 nM (active)
same,GI50,[17],< 10 nM (active) and 16.9 nM (active)
same,GI50,[18],10.9 nM (active) and 9.48 nM (active)
same,GI50,[19],< 10 nM (active) and 18.5 nM (active)
same,GI50,[20],124 nM (active)
same,GI50,[21],112 nM (active)
same,GI50,[23],8.91 nM (active) and < 10 nM (active)
same,GI50,[29],23.8 nM (active) and < 13.5 nM (active)
same,GI50,[30],15.6 nM (active) and 16.2 nM (active)
same,GI50,[32],< 10 nM (active) and 9.16 nM (active)
same,GI50,[35],13.9 nM (active) and 26.3 nM (active)
same,GI50,[36],10.2 nM (active) and < 10 nM (active)
same,GI50,[43],85.5 nM (active)
same,GI50,[45],201 nM (active)
same,GI50,[47],36.6 nM (active)
same,GI50,[49],101 nM (active)
same,GI50,[50],> 60.8 µM (inactive) and 51.9 µM (inactive)
same,GI50,[52],< 17.8 nM (active) and 15.4 nM (active)
same,GI50,[53],9.82 nM (active) and < 10 nM (active)
same,GI50,[56],16.1 nM (active) and < 10 nM (active)
same,GI50,[60],< 10 nM (active) and 8.95 nM (active)
same,GI50,[61],20.2 nM (active)
same,GI50,[62],15.6 nM (active) and < 10 nM (active)
same,GI50,[63],62.7 nM (active)
same,GI50,[67],44.3 nM (active) and 50.7 nM (active)
COc1cc(/C=C\c2ccc(O)cc2)cc(OC)c1OC,GI50,[2],22300 nM (inactive)
same,GI50,[3],8590 nM (inactive)
same,GI50,[4],3960 nM (inactive)
same,GI50,[5],29400 nM (inactive)
same,GI50,[6],10400 nM (inactive)
same,GI50,[7],3370 nM (inactive)
same,GI50,[8],3940 nM (inactive)
same,GI50,[9],1180 nM (inactive)
same,GI50,[10],518 nM
same,GI50,[11],10300 nM (inactive)
same,GI50,[12],3960 nM (inactive)
same,GI50,[13],6950 nM (inactive)
same,GI50,[14],5190 nM (inactive)
same,GI50,[15],8970 nM (inactive)
same,GI50,[16],3880 nM (inactive)
same,GI50,[17],350 nM (active)
same,GI50,[18],6100 nM (inactive)
same,GI50,[19],1910 nM (inactive)
same,GI50,[22],98900 nM (inactive)
same,GI50,[23],2640 nM (inactive)
same,GI50,[24],22200 nM (inactive)
same,GI50,[25],3660 nM (inactive)
same,GI50,[26],4900 nM (inactive)
same,GI50,[27],3010 nM (inactive)
same,GI50,[29],4250 nM (inactive)
same,GI50,[30],2650 nM (inactive)
same,GI50,[31],402 nM (active)
same,GI50,[33],555 nM (active)
same,GI50,[34],4240 nM (inactive)
same,GI50,[68],4180 nM (inactive)
same,GI50,[35],17300 nM (inactive)
same,GI50,[36],9930 nM (inactive)
same,GI50,[37],2470 nM (inactive)
same,GI50,[38],2320 nM (inactive)
same,GI50,[39],15300 nM (inactive)
same,GI50,[40],2480 nM (inactive)
same,GI50,[42],3720 nM (inactive)
same,GI50,[44],> 23300 nM (inactive)
same,GI50,[46],18200 nM (inactive)
same,GI50,[48],33300 nM (inactive)
same,GI50,[51],5240 nM (inactive)
same,GI50,[52],505 nM (active)
same,GI50,[53],3330 nM (inactive)
same,GI50,[54],4710 nM (inactive)
same,GI50,[55],883 nM (active)
same,GI50,[56],2820 nM (inactive)
same,GI50,[57],3780 nM (inactive)
same,GI50,[58],5570 nM (inactive)
same,GI50,[59],22300 nM (inactive)
same,GI50,[60],9980 nM (inactive)
same,GI50,[62],2880 nM (inactive)
same,GI50,[64],8170 nM (inactive)
same,GI50,[65],2560 nM (inactive)
same,GI50,[66],293 nM (active)
same,GI50,[67],> 100000 nM (inactive)
